For series [1] the following is noted: human, serum, 4383 h.
For series [2] the following is noted: human.
For series [3] the following is noted: human. This is another data set of the same source.
The conditions of series [4]: human, serum.
For series [5] the following is noted: human. The source holds these as a separate data set.
The conditions of series [6]: human. The source holds these as a separate data set.
Series [7] in a line: Highest frequency of moderate liver toxicity observed during clinical trials, expressed as a percentage. [column '% BIOL' in source]. The settings on record: human.
The conditions of series [8]: human. This is another data set of the same source.
The nature of series [9]: Times to onset, minimal and maximal, observed in the indexed observations. [column 'DELAI' in source]. As to conditions: human.
The conditions of series [10]: human. The source holds these as a separate data set.
A short description of series [11]: Highest frequency of acute liver toxicity observed during clinical trials, expressed as a percentage. [column '% AIGUE' in source]. As to conditions: human.
The conditions of series [12]: human. The source holds these as a separate data set.
For series [13] the following is noted: human. The source holds these as a separate data set.
For series [14] the following is noted: human. This is another data set of the same source.
For series [15] the following is noted: human, serum. This is another data set of the same source.
Series [16] is described as follows: Proposed mechanism(s) of liver damage. [column 'MEC' in source]. As to conditions: human.
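Wherever Hepatotoxicity (association with vascular disease) is given: count of indexed literature references reporting vascular liver injury in humans, e.g. peliosis hepatitis, hepatic veno-occlusive disease or Budd-Chiari syndrome.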
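Wherever Hepatotoxicity (benign tumour) is given: value is a count of indexed literature references citing a benign tumour confirmed by histopathology.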
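Wherever Hepatotoxicity (choleostasis) is given: human cholestatic liver injury, shown by histopathology or by peak ALT or AST elevation over alkaline phosphatase ratio below 2, value counts indexed literature reports.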
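Wherever Hepatotoxicity (chronic liver disease) is given: chronic liver injury confirmed by histopathology or persistently raised serum aminotransferase activity beyond 6 months, value given as the count of indexed literature references.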
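Wherever Hepatotoxicity (cirrhosis) is given: value is a count of indexed literature references reporting cirrhosis confirmed by histopathology.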
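Wherever Hepatotoxicity (cytolytic) is given: human cytolytic liver injury, shown by histopathology or by a ratio above 5 of peak ALT or AST elevation to alkaline phosphatase elevation, value counts indexed references.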
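Wherever Hepatotoxicity (granulomatous hepatitis) is given: value is a count of indexed literature references reporting granulomatous liver disease confirmed by histopathology.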
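Wherever Hepatotoxicity (malignant tumour) is given: malignant tumour confirmed by histopathology, value gives the count of indexed literature references reporting it.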
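Wherever Hepatotoxicity (severe hepatitis) is given: human clinical data: severe hepatitis, meaning potentially life-threatening liver failure or clinically observed cases, the value counts how many indexed literature references report it.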
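Wherever Hepatotoxicity (steatosis) is given: steatosis confirmed by histopathology, value is the count of indexed references.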

With `C[C@H](CCc1ccccc1)NC[C@H](O)c1ccc(O)c(C(N)=O)c1` [DILEVALOL], in series [1], the “Hepatotoxicity (chronic liver disease)” value stood at 0. The “Hepatotoxicity (severe hepatitis)” value in series [2] came out at 1. Besides, the “Hepatotoxicity (malignant tumour)” value in series [3] amounted to 0. The “Hepatotoxicity (moderate)” value in series [4] is on record as 1; in series [7], 2%. In [5], the “Hepatotoxicity (benign tumour)” value amounted to 0. The “Hepatotoxicity (granulomatous hepatitis)” value in series [6] was determined as 0. In [8], the “Hepatotoxicity (cirrhosis)” value is recorded as 0. In addition, in series [9], the “Hepatotoxicity (time to onset)” value is listed as 2 weeks. Further, in [10], the “Hepatotoxicity (association with vascular disease)” value worked out at 0. The “Hepatotoxicity (acute)” value in series [11] is reported as 0%; in series [15] it was 1. In addition, in [12], the “Hepatotoxicity (cytolytic)” value was 1. The “Hepatotoxicity (steatosis)” value in series [13] is given as 0. Moreover, the “Hepatotoxicity (choleostasis)” value in series [14] is recorded as 0. The “Hepatotoxicity (mechanism)” value in [16] is given as “Allergic”.

Consider `CCOC(=O)CN[C@@H](C(=O)N1CC[C@H]1C(=O)NCc1ccc(/C(N)=N\O)cc1)C1CCCCC1` [XIMELAGATRAN], for which, in series [1], the “Hepatotoxicity (chronic liver disease)” value was 0. In addition, the “Hepatotoxicity (severe hepatitis)” value in [2] came to 0. In addition, in series [3], the “Hepatotoxicity (malignant tumour)” value amounted to 0. The “Hepatotoxicity (moderate)” value in [4] was determined as 9; in series [7], 9.8%. The “Hepatotoxicity (benign tumour)” value in series [5] is on record as 0. The “Hepatotoxicity (granulomatous hepatitis)” value in [6] is 0. Besides, in series [8], the “Hepatotoxicity (cirrhosis)” value came to 0. Moreover, the “Hepatotoxicity (time to onset)” value in [9] came out at 1 month - 6 months. Further, the “Hepatotoxicity (association with vascular disease)” value in [10] worked out at 0. In addition, the figures for the “Hepatotoxicity (acute)” value in series [11] and in [15] were 6.8% and 3, respectively. Besides, the “Hepatotoxicity (cytolytic)” value in [12] is on record as 0. Moreover, the “Hepatotoxicity (steatosis)” value in [13] worked out at 0. The “Hepatotoxicity (choleostasis)” value in series [14] is on record as 0. The “Hepatotoxicity (mechanism)” value in [16] is on record as “Dose-dependant”.

Regarding `CCCCN1CCCCC1C(=O)Nc1c(C)cccc1C` (stereo not drawn) [BUPIVACAINE], in series [1], the “Hepatotoxicity (chronic liver disease)” value is on record as 0. Also, the “Hepatotoxicity (severe hepatitis)” value in series [2] came out at 0. Also, in series [3], the “Hepatotoxicity (malignant tumour)” value is 0. Moreover, the “Hepatotoxicity (moderate)” value in series [4] came to 0; in [7], 0%. The “Hepatotoxicity (benign tumour)” value in [5] is reported as 0. Also, the “Hepatotoxicity (granulomatous hepatitis)” value in series [6] came out at 0. The “Hepatotoxicity (cirrhosis)” value in series [8] was 0. The “Hepatotoxicity (time to onset)” value in series [9] is reported as 2 weeks - 1 month. Moreover, the “Hepatotoxicity (association with vascular disease)” value in series [10] worked out at 0. Moreover, the “Hepatotoxicity (acute)” value in [11] is reported as 0%; in series [15], 2. The “Hepatotoxicity (cytolytic)” value in [12] is recorded as 1. Besides, in series [13], the “Hepatotoxicity (steatosis)” value was determined as 0. The “Hepatotoxicity (choleostasis)” value in [14] is on record as 2. Moreover, the “Hepatotoxicity (mechanism)” value in [16] was “Allergic”.

`c1ccc(C2(N3CCCCC3)CCCCC2)cc1` [PHENCYCLIDINE]: the “Hepatotoxicity (chronic liver disease)” value in [1] is listed as 0. The “Hepatotoxicity (severe hepatitis)” value in series [2] was determined as 2. Besides, in [3], the “Hepatotoxicity (malignant tumour)” value came out at 0. The results for the “Hepatotoxicity (moderate)” value in series [4] and in series [7] were 1 and 49.9%, respectively. Moreover, the “Hepatotoxicity (benign tumour)” value in series [5] stood at 0. In addition, the “Hepatotoxicity (granulomatous hepatitis)” value in [6] was determined as 0. Besides, the “Hepatotoxicity (cirrhosis)” value in series [8] turned out to be 0. Besides, the “Hepatotoxicity (time to onset)” value in [9] is 6 hours - 3 days. In addition, in [10], the “Hepatotoxicity (association with vascular disease)” value is reported as 0. In addition, the “Hepatotoxicity (acute)” value in series [11] is 0%; in series [15] it was 2. Besides, the “Hepatotoxicity (cytolytic)” value in series [12] was 2. Moreover, the “Hepatotoxicity (steatosis)” value in series [13] came to 0. Besides, the “Hepatotoxicity (choleostasis)” value in [14] was determined as 0. The “Hepatotoxicity (mechanism)” value in series [16] was “Dose-dependant”.

`CO/N=C(\C(=O)N[C@@H]1C(=O)N2C(C(=O)OC(C)OC(C)=O)=C(COC(N)=O)CS[C@H]12)c1ccco1` (stereo partly drawn) [CEFUROXIME AXETIL]: the “Hepatotoxicity (chronic liver disease)” value in series [1] is given as 0. For the same compound, the “Hepatotoxicity (severe hepatitis)” value in [2] worked out at 0. In addition, the “Hepatotoxicity (malignant tumour)” value in [3] is given as 0. Further, the results for the “Hepatotoxicity (moderate)” value in series [4] and in series [7] were 31 and 20%, respectively. Moreover, in series [5], the “Hepatotoxicity (benign tumour)” value turned out to be 0. The “Hepatotoxicity (granulomatous hepatitis)” value in series [6] is reported as 0. Besides, in series [8], the “Hepatotoxicity (cirrhosis)” value is 0. In addition, in series [9], the “Hepatotoxicity (time to onset)” value is 4 days. Moreover, the “Hepatotoxicity (association with vascular disease)” value in [10] stood at 0. Also, the entries for the “Hepatotoxicity (acute)” value in series [11] and in series [15] were 0.2% and 2, respectively. The “Hepatotoxicity (cytolytic)” value in series [12] is reported as 0. Further, in series [13], the “Hepatotoxicity (steatosis)” value was found to be 0. The “Hepatotoxicity (choleostasis)” value in series [14] is listed as 1. In addition, the “Hepatotoxicity (mechanism)” value in [16] is reported as “Allergic”.

With `CC(O)CCC(=O)c1ccoc1` (stereo not drawn), the “Hepatotoxicity (chronic liver disease)” value in [1] was 0. Also, the “Hepatotoxicity (severe hepatitis)” value in series [2] stood at 1. Further, the “Hepatotoxicity (malignant tumour)” value in series [3] is 0. For the same compound, the entries for the “Hepatotoxicity (moderate)” value in [4] and in series [7] were 0 and 0%, respectively. Moreover, in series [5], the “Hepatotoxicity (benign tumour)” value is reported as 0. Further, the “Hepatotoxicity (granulomatous hepatitis)” value in series [6] is reported as 0. Also, the “Hepatotoxicity (cirrhosis)” value in series [8] was determined as 0. The “Hepatotoxicity (time to onset)” value in series [9] is 2 days - 8 days. For the same compound, the “Hepatotoxicity (association with vascular disease)” value in series [10] is on record as 0. Besides, the “Hepatotoxicity (acute)” value stood at 11.3% in [11] and 1 in series [15]. Moreover, the “Hepatotoxicity (cytolytic)” value in series [12] was determined as 0. Further, in series [13], the “Hepatotoxicity (steatosis)” value was 0. For the same compound, in series [14], the “Hepatotoxicity (choleostasis)” value came to 0. In [16], the “Hepatotoxicity (mechanism)” value is “Dose-dependant”.

Consider `CO[C@H]1/C=C/O[C@@]2(C)Oc3c(C)c(O)c4c(c3C2=O)C2=NC3(CCN(CC(C)C)CC3)NC2=C(NC(=O)/C(C)=C\C=C\[C@H](C)[C@H](O)[C@@H](C)[C@@H](O)[C@@H](C)[C@H](OC(C)=O)[C@@H]1C)C4=O` [RIFABUTIN], for which the “Hepatotoxicity (chronic liver disease)” value in series [1] is on record as 0. The “Hepatotoxicity (severe hepatitis)” value in [2] (Liver) is reported as 1. In [3], the “Hepatotoxicity (malignant tumour)” value was determined as 0. Besides, the figures for the “Hepatotoxicity (moderate)” value in [4] and in [7] (Liver) were 6 and 7.1%, respectively. Also, in [5], the “Hepatotoxicity (benign tumour)” value is 0. Further, the “Hepatotoxicity (granulomatous hepatitis)” value in [6] (Liver) stood at 0. The “Hepatotoxicity (cirrhosis)” value in series [8] was 0. Further, the “Hepatotoxicity (time to onset)” value in series [9] was 2 weeks - 11 weeks. Further, in series [10], the “Hepatotoxicity (association with vascular disease)” value was 0. Further, the “Hepatotoxicity (acute)” value was determined as 0% in series [11] (Liver) and 2 in series [15]. In addition, in series [12] (Liver), the “Hepatotoxicity (cytolytic)” value was 1. In series [13], the “Hepatotoxicity (steatosis)” value is 0. For the same compound, the “Hepatotoxicity (choleostasis)” value in series [14] (Liver) was 0. Also, the “Hepatotoxicity (mechanism)” value in series [16] (Liver) was “Dose-dependant”.

Turning to CARBOPLATIN, in [1], the “Hepatotoxicity (chronic liver disease)” value amounted to 0. The “Hepatotoxicity (severe hepatitis)” value in series [2] was 1. Further, in series [3], the “Hepatotoxicity (malignant tumour)” value is reported as 0. The figures for the “Hepatotoxicity (moderate)” value in series [4] and in series [7] were 5 and 27%, respectively. Also, the “Hepatotoxicity (benign tumour)” value in series [5] came to 0. Further, the “Hepatotoxicity (granulomatous hepatitis)” value in [6] amounted to 0. The “Hepatotoxicity (cirrhosis)” value in [8] is listed as 0. In addition, the “Hepatotoxicity (time to onset)” value in [9] is 1 week. In addition, the “Hepatotoxicity (association with vascular disease)” value in series [10] is reported as 5. Further, the results for the “Hepatotoxicity (acute)” value in series [11] and in [15] were 6.1% and 1, respectively. Besides, in [12], the “Hepatotoxicity (cytolytic)” value came out at 0. Further, the “Hepatotoxicity (steatosis)” value in [13] is given as 0. The “Hepatotoxicity (choleostasis)” value in [14] was 1. Also, the “Hepatotoxicity (mechanism)” value in series [16] is listed as “Dose-dependant”.

Values taken from ChEMBL document CHEMBL3137667, “[Drug-induced liver injury; fourteenth updated edition of the bibliographic database of liver injuries and related drugs]” (Gastroenterol Clin Biol, 2004).
